# Experimental data as given in PubChem BioAssay (NCI).
#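 Step 1: Grow cells in 96-well plates. Step 2: Expose to compound for 48 hours at 5 concentrations. Step 3: Interpolate endpoints linearly; if unreached, use highest concentration. TGI denotes the concentration required for complete inhibition of growth.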
# Columns and labels:
# Assay in all cases: DTP human tumour cell line panel, 48 h
# [1] = test system: MOLT-4 leukemia
# [2] = test system: HCT-116 colon
# [3] = test system: SK-OV-3 ovarian
# [4] = test system: SF-539 CNS
# [5] = test system: KM12 colon
# [6] = test system: SK-MEL-28 melanoma
# [7] = test system: UACC-62 melanoma
# [8] = test system: RPMI-8226 leukemia
# [9] = test system: NCI-H460 lung
# [10] = test system: HOP-18 NSCLC
# [11] = test system: OVCAR-3 ovarian
# [12] = test system: LOX IMVI melanoma
# [13] = test system: K-562 leukemia
# [14] = test system: HL-60(TB) leukemia
# [15] = test system: SNB-78 CNS
# [16] = test system: UO-31 renal
# [17] = test system: A498 renal
# [18] = test system: SN12C renal
# [19] = test system: BT-549 breast
# [20] = test system: TK-10 renal
# [21] = test system: SK-MEL-5 melanoma
# [22] = test system: MDA-MB-231 breast
# [23] = test system: DLD-1 colon
# [24] = test system: SW-620 colon
# [25] = test system: SF-268 CNS
# [26] = test system: DU-145 prostate
# [27] = test system: PC-3 prostate
# [28] = test system: KM20L2 colon
# [29] = test system: MCF7 breast
# [30] = test system: NCI-H226 lung
# [31] = test system: M19-MEL melanoma
# [32] = test system: SF-295 CNS
# [33] = test system: SNB-75 CNS
# [34] = test system: SNB-19 CNS
# [35] = test system: HS 578T breast
# [36] = test system: MDA-MB-435
# [37] = test system: A549 NSCLC
# [38] = test system: LXFL 529 NSCLC
# [39] = test system: HCT-15 colon
# [40] = test system: M14 melanoma
# [41] = test system: DMS 273 small cell lung
# [42] = test system: OVCAR-8 ovarian
# [43] = test system: SR leukemia
# [44] = test system: XF 498 CNS
# [45] = test system: HOP-62 NSCLC
# [46] = test system: IGROV1 ovarian
# [47] = test system: UACC-257 melanoma
# [48] = test system: MALME-3M melanoma
# [49] = test system: CAKI-1 renal
# [50] = test system: HCC-2998 colon
# [51] = test system: 786-0 renal
# [52] = test system: HT29 colon
# [53] = test system: COLO 205 colon
# [54] = test system: U251 CNS
# [55] = test system: NCI-H23 lung
# [56] = test system: CCRF-CEM leukemia
# [57] = test system: NCI-H522 lung
# [58] = test system: T-47D breast
# [59] = test system: DMS 114 small cell lung
# [60] = test system: ACHN renal
# [61] = test system: OVCAR-4 ovarian
# [62] = test system: RXF 393 renal
# [63] = test system: SK-MEL-2 melanoma
# [64] = test system: EKVX NSCLC
# [65] = test system: HOP-92 NSCLC
# [66] = test system: OVCAR-5 ovarian
compound,measurement,setting,value
Cc1ccc(NC(=O)NC(=O)c2ccc([N+](=O)[O-])cc2[N+](=O)[O-])cc1Oc1ncc(Cl)cn1,TGI,[1],49.8 µM
same,TGI,[2],4.78 µM
same,TGI,[3],25.7 µM
same,TGI,[4],0.91 µM
same,TGI,[5],6.83 µM
same,TGI,[6],24.1 µM
same,TGI,[7],21 µM
same,TGI,[8],3.08 µM
same,TGI,[9],14.8 µM
same,TGI,[10],25.3 µM
same,TGI,[11],13.6 µM
same,TGI,[12],11.9 µM
same,TGI,[13],> 37.4 µM
same,TGI,[14],0.584 µM
same,TGI,[15],26.5 µM
same,TGI,[16],17.3 µM
same,TGI,[17],22.2 µM
same,TGI,[18],16.6 µM
same,TGI,[19],32.7 µM
same,TGI,[20],> 100 µM
same,TGI,[21],0.819 µM
same,TGI,[22],24.2 µM
same,TGI,[23],12.5 µM
same,TGI,[24],12.6 µM
same,TGI,[25],21.8 µM
same,TGI,[26],> 100 µM
same,TGI,[27],12.2 µM
same,TGI,[28],0.515 µM
same,TGI,[29],20.5 µM
same,TGI,[30],2.53 µM
same,TGI,[31],21.7 µM
same,TGI,[32],43.5 µM
same,TGI,[33],2.4 µM
same,TGI,[34],21.4 µM
same,TGI,[35],10.8 µM
same,TGI,[36],0.542 µM
same,TGI,[37],> 40.2 µM
same,TGI,[38],11.1 µM
same,TGI,[39],11.2 µM
same,TGI,[40],11.3 µM
same,TGI,[41],1.08 µM
same,TGI,[42],6.7 µM
same,TGI,[43],16.9 µM
same,TGI,[44],16.9 µM
same,TGI,[45],12.5 µM
same,TGI,[46],29.7 µM
same,TGI,[47],16.9 µM
same,TGI,[48],22.3 µM
same,TGI,[49],62.9 µM
same,TGI,[50],0.619 µM
same,TGI,[51],13.8 µM
same,TGI,[52],2.57 µM
same,TGI,[53],5.9 µM
same,TGI,[54],3.83 µM
same,TGI,[55],9.39 µM
same,TGI,[56],> 62.3 µM
same,TGI,[57],0.603 µM
same,TGI,[58],40.6 µM
same,TGI,[59],10.1 µM
same,TGI,[60],> 100 µM
same,TGI,[61],26 µM
C=C/C=C(\NC(=O)C(Cl)(Cl)Cl)[Si](C)(C)C,TGI,[1],> 100 µM
same,TGI,[2],> 100 µM
same,TGI,[62],> 100 µM
same,TGI,[3],> 100 µM
same,TGI,[4],> 100 µM
same,TGI,[5],> 100 µM
same,TGI,[6],> 100 µM
same,TGI,[7],> 100 µM
same,TGI,[8],> 100 µM
same,TGI,[63],> 100 µM
same,TGI,[9],> 100 µM
same,TGI,[10],> 100 µM
same,TGI,[11],> 100 µM
same,TGI,[12],> 100 µM
same,TGI,[13],> 100 µM
same,TGI,[14],> 100 µM
same,TGI,[15],> 100 µM
same,TGI,[16],> 100 µM
same,TGI,[17],> 100 µM
same,TGI,[18],> 100 µM
same,TGI,[20],> 100 µM
same,TGI,[21],> 100 µM
same,TGI,[23],> 100 µM
same,TGI,[24],> 100 µM
same,TGI,[25],> 100 µM
same,TGI,[28],> 100 µM
same,TGI,[30],> 100 µM
same,TGI,[31],> 100 µM
same,TGI,[32],> 100 µM
same,TGI,[33],> 100 µM
same,TGI,[34],> 100 µM
same,TGI,[37],> 100 µM
same,TGI,[38],> 100 µM
same,TGI,[39],> 100 µM
same,TGI,[40],> 100 µM
same,TGI,[41],> 100 µM
same,TGI,[42],> 100 µM
same,TGI,[43],> 100 µM
same,TGI,[64],> 100 µM
same,TGI,[44],> 100 µM
same,TGI,[45],> 100 µM
same,TGI,[46],> 100 µM
same,TGI,[47],> 100 µM
same,TGI,[65],> 100 µM
same,TGI,[48],> 100 µM
same,TGI,[50],> 100 µM
same,TGI,[51],> 100 µM
same,TGI,[52],> 100 µM
same,TGI,[53],> 100 µM
same,TGI,[54],> 100 µM
same,TGI,[55],> 100 µM
same,TGI,[56],> 100 µM
same,TGI,[57],> 100 µM
same,TGI,[66],> 100 µM
same,TGI,[59],> 100 µM
same,TGI,[60],> 100 µM
same,TGI,[61],> 100 µM
